Results: patent US9035085B2, “Aryl ketone compounds and compositions for delivering active agents” (EMISPHERE TECHNOLOGIES, INC., priority 2004, dated 2015)

Assay: Insulin oral delivery in rats (blood glucose)
Format: in vivo, Male Sprague-Dawley rats
Conditions: delivery agent 200 mg/kg with insulin 0.50 mg/kg, 1 ml/kg
From the text: The typical dosing and sampling protocols were as follows.

SMILES | % Change in Glucose (from control)
O=C(O)CCCC(=O)c1ccccc1 [Compound 8] | −1.3%
COc1ccc(C(=O)CCCCC(=O)O)cc1 [Compound 14] | −2.0%
O=C(O)CCCC(=O)c1cccc(Oc2ccccc2)c1 [Compound 41] | −16.5%
O=C(O)CCCCCCC(=O)c1ccccc1 [Compound 25] | −20.8%
O=C(O)CCC(=O)c1cc(F)ccc1F [Compound 35] | −11.8%
COc1ccccc1C(=O)CCC(=O)O [Compound 12] | −2.3%
Cc1ccc(C(=O)CCCCC(=O)O)cc1C [Compound 16] | −25.1%
O=C(O)CCCC(=O)c1ccc(Cl)cc1 [Compound 36] | −31.9%
O=C(O)CCC(=O)c1cc(Cl)ccc1Cl [Compound 22] | −16.3%
COc1c(C)cc(C(=O)CCCCC(=O)O)cc1C [Compound 10] | −13.5%
CCCCCCOc1ccc(C(=O)CCC(=O)O)cc1 [Compound 34] | 9.4%
Cc1ccc(C)c(C(=O)CCC(=O)O)c1 [Compound 19] | −28.3%
O=C(O)CCCC(=O)c1ccc(Oc2ccccc2)cc1 [Compound 40] | −3.9%
Cc1cc(C)cc(C(=O)CCCCC(=O)O)c1 [Compound 23] | −7.5%
O=C(O)CCCCCC(=O)c1ccccc1 [Compound 28] | −26.4%
COc1ccc(C(=O)CCC(=O)O)cc1 [Compound 5, 4-(4-Methoxy-phenyl)-4-oxo-butyric acid] | −12.1%
Cc1cc(C)cc(C(=O)CCCCCCC(=O)O)c1 [Compound 20] | −6.6%
O=C(O)CCC(=O)c1ccc(F)cc1F [Compound 30] | −10.5%
O=C(O)CCC(=O)c1ccccc1 [Compound 1, 4-Oxo-4-phenyl-butyric acid] | −30.7%
O=C(O)CCCCC(=O)c1cc(Cl)ccc1Cl [Compound 21] | −40.8%
O=C(O)CCCCCC(=O)c1cccc(Oc2ccccc2)c1 [Compound 42] | −13.8%
COc1ccc(C(=O)CCCC(=O)O)cc1 [Compound 6, 5-(4-Methoxy-phenyl)-5-oxo-pentanoic acid] | −18.3%
Cc1ccc(C(=O)CCC(=O)O)cc1 [Compound 38] | −26.9%
CCc1ccc(C(=O)CCC(=O)O)cc1 [Compound 29] | −35.4%
O=C(O)CCCCC(=O)c1cc(F)cc(F)c1 [Compound 37] | −39.0%
Cc1ccc(C(=O)CCC(=O)O)cc1C [Compound 17] | −9.5%
